# Source: patent US7973021B2, “Immunomodulating agent in gut” (Kabushiki Kaisha Hayashibara Seibutsu Kagaku Kenkyujo, priority 2005, dated 2011)
# Columns and labels:
# Peyer's patch cells [1] = test: IgA, IL-6 and TGF-β produced by Peyer's patch cells taken from mice administered the saccharides (ConA culture, ELISA); format: in vivo
# Procedure: To investigate the immnomodulating effect of the various saccharides, the contents of IgA, IL-6 and TGF-βproduced by the Peyer's patch cells taken from the mice administered the saccharides. After the Peyer's patches taken from the mice administered with the purified diet containing the test saccharides or the control purified diet in Experiment 2 were cut by scissors, they were treated in 0.2 w/w % collagenase solution at 37° C. for 30 minutes. They were filtered through a cell strainer and the filtrate containing the cells were centrifuged to give the cell precipitates. They were suspended in 45 w/w % PARCOR (commercialized by Amersham, PLC), the cell suspensions were layered on 75 w/w % PARCOR and centrifuged for 10 minutes at 1,000 g. Cells floating at the interface between 45 w/w % PARCOR and 75 w/w % PARCOR were collected and suspended in RPM1164 medium containing 10% FCS and 10 mM HEPES to give the cell suspensions at a concentration of 1×10^6 cells/ml. They were seeded in 24-well microplates by 1 ml/well, added with 2 μg/m1 of concanavalin A, and cultured at 37° C. for 48 hours in atmosphere of 5% carbon dioxide. The culture supernatant was collected from each well and their IgA contents, TGF-βcontents or IL-6 contents were measured by ELISA method using anti-mouse-IgA antibody, anti-mouse-IL-6 antibody and anti-mouse-TGF-μ1 antibody, then the averages were calculated from the data of five mice. The values in Table 3 means relative amounts (%) to IgA, IL-6 or TGF-β amount produced in Peyer's patch cells taken from the control mice.
# female BALB/c mice [2] = test: Analysis of cecal contents (pH, weight, IgA, IgG) of mice fed saccharide diets for 4 weeks; format: in vivo
# Procedure: To investigate the immunomodulating effect of the various saccharides, IgA content and IgG content in the cecal contents of the mice administered saccharides were measured. After the mice fed on the purified diet containing the test saccharide or the control purified diet (AIN-93G) for 4 weeks in Experiment 1 were killed, their cecums were surgically removed. After the pH and weight of the cecum contents were measured, IgA content and IgG content in the cecal contents were measured. IgA content was measured by ELISA method using anti-IgA antibodies and IgG content was measured by ELISA method using anti-IgG antibodies (MOUSE IgG ELISA QUANTITATION KIT produced by Bethyl Laboratories, Inc) and the amounts of the antibodies per gram of the cecal contents were obtained.
# female BALB/c mice [3] = test: Amounts of organic acids in cecal contents of mice ingesting the saccharides (ion chromatography); format: in vivo
# Procedure: To investigate the effects of the various saccharides on the enteric environment of mice, the contents of organic acids in the cecal contents were measured. After the cecal contents taken from the mice administered the purified diet containing the test saccharides or the control purified diet in Experiment 2 were suspended in an adequate amount of purified water, their supernatants collected by centrifugation were filtered with membrane (pore size of 0.45 μm). The filtrates were subjected to an ion chromatoanalyzer IC500P (produced by Yokogawa Electric Corporation) loaded with precolumn PCS5-052 and separation column SCS5-252, and eluted with 2 mM sulfuric acid (1.0 ml/min) to analyze the amounts of organic acids. The values expressed in percent in Table 4 mean the relative amounts of each organic acid in the cecal contents to those of the control mice.
# female BALB/c mice [4] = test: IgA content in feces of mice fed saccharide-supplemented purified diet (ELISA); format: in vivo; details: for IgA content in feces: average of five mice
# Procedure: To investigate immunomodulating effects of various saccharides, IgA contents in feces of mice administered saccharides were measured. After six-week-old female BALB/c mice were preliminarily grown for a week with AIN-93G, which is a standard growth purified diet for nutritional study using mice or rats introduced by American Institute of Nutrition in 1993, they were separated in groups of five mice each, and unlimitedly administered the test diets, which is made by supplementing 5 w/w % of the cyclic tetrasaccharide (produced in Example 2), 5 w/w % of nigerooligosaccharide (12.5 w/w % of “NISSHOKU TASTE OLIGO SYRUP”, containing 40% or more of nigerooligosaccharide on a dry solid basis, commercialized by Nihon Shokuhin Kako Co., Ltd.), or 5 w/w % of isomaltooligosaccharide (“ISOMALT 90” commercialized by Hayashibara Shoji, Inc.) to the same formula diet described above except the amount of corn starch was reduced by the relevant weight of the added test saccharide. As control, one group was administered with the standard growth purified diet (AIN-93G) without the test saccharides described above. After 1, 2, 3 and 4 weeks from the initial administration of the test or control diets, fresh feces were taken from each mouse and IgA content was measured by the ELISA method using anti-IgA antibody (MOUSE IgA ELISA QUANTITATION KIT produced by Bethyl Laboratories, Inc). The values expressed in percent in Table 1 mean the relative amounts with respect to control in each week.
# Peyer's patch cells [5] = test: Effects of saccharides on IFN-γ and IL-4 production of Peyer's patch cells in vitro (ELISA); format: cell-based, mice; details: saccharide 0.1 mg/ml; for Relative amount of IFN-γ / Relative amount of IL-4: 72 hours, relative to control; for IFN-γ production by stimulation of concanavalin A (in words): in vitro
# Procedure: To investigate direct effects of various saccharides on Peyer's patch cells, the amounts of IFN-γ and IL-4 produced in Peyer's patch cells taken from mice by adding various kinds of saccharide in an in vitro experiment. After six-week-old female BALB/c mice were preliminarily grown for a week with a standard growth purified diet (AIN-93G), their Peyer's patch cells were collected according to the method of Experiment 3. The cell suspension at a concentration of 1×10^6 cells/ml was prepared with RPMI1640 medium containing 10% FCS and 10 mM HEPES and seeded in 24-well microplates by 1 ml/well. After the test saccharides (the cyclic tetrasaccharide, nigerose or isomaltose) were added in an amount of 0.1 mg/ml and lipopolysaccharide (LPS) or concanavalin A (ConA) of 2 μg/ml, they were cultured at 37° C. for 72 hours in an atmosphere of 5% carbon dioxide. The amounts of IFN-γin the supernatants were measured by the ELISA method using anti-mouse- IFN-γ antibodies (MURINE IFN-γELISA DEVELOPMENT KIT, produced by PeproTech, Inc.), and the amounts of IL-4 were measured by the ELISA method using anti-mouse-IL-4 antibodies (Mouse IL-4 ELISA DEVELOPMENT KIT, produced by Genzyme-Techne). As a control, the amounts of IFN-γ and IL-4 produced in Peyer's patch cells cultured with the medium without adding the test saccharides by the same way described above. The values in Table 5 were shown as the relative amounts (%) to control.
# [6] = cells from mice administered the saccharide
# [7] = relative to Peyer's patch cells of control mice, 2 μg/ml concanavalin A, 48 hours, average of five mice
# [8] = after 4 weeks on 5 w/w % saccharide diet
# [9] = after 4 weeks on 5 w/w % saccharide diet, per gram of cecal contents
# [10] = cecal contents, 4 weeks on 5 w/w % saccharide diet
smiles,measurement,setting,value
"OC[C@H]1O[C@@H]2OC[C@H]3O[C@H](O[C@@H]4[C@@H](O)[C@@H](OC[C@H]5O[C@H](O[C@H]([C@H]2O)[C@@H]1O)[C@H](O)[C@@H](O)[C@@H]5O)O[C@H](CO)[C@H]4O)[C@H](O)[C@@H](O)[C@@H]3O [Cyclic tetrasaccharide, cyclo{>6)-α-D-glucopyranosyl-(1>3)-α-D -glucopyranosyl-(1>6)-α-D-glucopyranosyl-(1>3)-α-D -glucopyranosyl-(1>}]",IgA secretion in Peyer's patch cells (in words),Peyer's patch cells [1]; [6],increased
same,production of IL-6 in Peyer's patch cells (in words),Peyer's patch cells [1]; [6],increased
same,production of TGF-β in Peyer's patch cells (in words),Peyer's patch cells [1]; [6],increased
same,Relative IL-6 content,Peyer's patch cells [1]; [7],326%
same,Relative IgA content,Peyer's patch cells [1]; [7],209%
same,Relative TGF-β content,Peyer's patch cells [1]; [7],142%
same,IgA contents in cecal contents (in words),female BALB/c mice [2]; 4 weeks on saccharide diet,highest increase
same,Weight of cecal contents,female BALB/c mice [2]; [8],169 mg
same,pH of cecal contents,female BALB/c mice [2]; [8],7.16
same,IgA content in cecal contents,female BALB/c mice [2]; [9],4.4 mg/g
same,IgG content in cecal contents,female BALB/c mice [2]; [9],85 mg/g
same,"Acetic acid, relative amount to control mice",female BALB/c mice [3]; cecal contents,(94%)
same,"Formic acid, relative amount to control mice",female BALB/c mice [3]; cecal contents,(258%)
same,"Isobutyric acid, relative amount to control mice",female BALB/c mice [3]; cecal contents,(70%)
same,"Isovaleric acid, relative amount to control mice",female BALB/c mice [3]; cecal contents,(73%)
same,"Lactic acid, relative amount to control mice",female BALB/c mice [3]; cecal contents,(1000%)
same,"Malic acid, relative amount to control mice",female BALB/c mice [3]; cecal contents,(179%)
same,"Propionic acid, relative amount to control mice",female BALB/c mice [3]; cecal contents,(100%)
same,"Succinic acid, relative amount to control mice",female BALB/c mice [3]; cecal contents,(267%)
same,"Total organic acids, relative amount to control mice",female BALB/c mice [3]; cecal contents,(109%)
same,"n-Butyric acid, relative amount to control mice",female BALB/c mice [3]; cecal contents,(206%)
same,"n-Valeric acid, relative amount to control mice",female BALB/c mice [3]; cecal contents,(73%)
same,Amount of organic acid: Acetic acid,female BALB/c mice [3]; [10],63 µmol/g
same,Amount of organic acid: Formic acid,female BALB/c mice [3]; [10],0.82 µmol/g
same,Amount of organic acid: Isobutyric acid,female BALB/c mice [3]; [10],1.9 µmol/g
same,Amount of organic acid: Isovaleric acid,female BALB/c mice [3]; [10],2.4 µmol/g
same,Amount of organic acid: Lactic acid,female BALB/c mice [3]; [10],4.2 µmol/g
same,Amount of organic acid: Malic acid,female BALB/c mice [3]; [10],1.5 µmol/g
same,Amount of organic acid: Propionic acid,female BALB/c mice [3]; [10],12 µmol/g
same,Amount of organic acid: Succinic acid,female BALB/c mice [3]; [10],5.6 µmol/g
same,Amount of organic acid: Total organic acids,female BALB/c mice [3]; [10],106 µmol/g
same,Amount of organic acid: n-Butyric acid,female BALB/c mice [3]; [10],14 µmol/g
same,Amount of organic acid: n-Valeric acid,female BALB/c mice [3]; [10],0.87 µmol/g
same,lactic acid content in cecal contents (in words),"female BALB/c mice [3]; mouse, in vivo",increased
same,IgA content in feces,"female BALB/c mice [4]; First week (age in 8 weeks), 5 w/w % saccharide in AIN-93G diet",5.61 mg/g
same,"IgA content in feces, relative amount with respect to control","female BALB/c mice [4]; First week, 5 w/w % saccharide in diet",106%
same,IgA content in feces,"female BALB/c mice [4]; Fourth week (age in 11 weeks), 5 w/w % saccharide in diet",7.09 mg/g
same,"IgA content in feces, relative amount with respect to control","female BALB/c mice [4]; Fourth week, 5 w/w % saccharide in diet",328%
same,IgA content in feces,"female BALB/c mice [4]; Second week (age in 9 weeks), 5 w/w % saccharide in diet",8.47 mg/g
same,"IgA content in feces, relative amount with respect to control","female BALB/c mice [4]; Second week, 5 w/w % saccharide in diet",214%
same,IgA content in feces,"female BALB/c mice [4]; Third week (age in 10 weeks), 5 w/w % saccharide in diet",7.57 mg/g
same,"IgA content in feces, relative amount with respect to control","female BALB/c mice [4]; Third week, 5 w/w % saccharide in diet",346%
same,IgA contents in feces of the mice (in words),female BALB/c mice [4]; added in the purified diet,increased
same,Relative amount of IFN-γ,Peyer's patch cells [5]; ConA 2 μg/ml,269%
same,Relative amount of IL-4,Peyer's patch cells [5]; ConA 2 μg/ml,96%
same,Relative amount of IFN-γ,Peyer's patch cells [5]; LPS 2 μg/ml,103%
same,Relative amount of IL-4,Peyer's patch cells [5]; LPS 2 μg/ml,101%
same,IFN-γ production by stimulation of concanavalin A (in words),Peyer's patch cells [5],accelerated
"OC[C@H]1O[C@H](OC[C@H]2OC(O)[C@H](O)[C@@H](O)[C@@H]2O)[C@H](O)[C@@H](O)[C@@H]1O (stereo partly shown) [Isomaltose, isomaltose]",Relative amount of IFN-γ,Peyer's patch cells [5]; ConA 2 μg/ml,53%
same,Relative amount of IL-4,Peyer's patch cells [5]; ConA 2 μg/ml,100%
same,Relative amount of IFN-γ,Peyer's patch cells [5]; LPS 2 μg/ml,100%
same,Relative amount of IL-4,Peyer's patch cells [5]; LPS 2 μg/ml,97%
same,IFN-γ production by stimulation of concanavalin A (in words),Peyer's patch cells [5],suppressed
"OC[C@H]1O[C@H](O[C@H]2[C@H](O)[C@@H](CO)OC(O)[C@@H]2O)[C@H](O)[C@@H](O)[C@@H]1O (stereo partly shown) [Nigerose, nigerose]",Relative amount of IFN-γ,Peyer's patch cells [5]; ConA 2 μg/ml,63%
same,Relative amount of IL-4,Peyer's patch cells [5]; ConA 2 μg/ml,100%
same,Relative amount of IFN-γ,Peyer's patch cells [5]; LPS 2 μg/ml,104%
same,Relative amount of IL-4,Peyer's patch cells [5]; LPS 2 μg/ml,99%
same,IFN-γ production by stimulation of concanavalin A (in words),Peyer's patch cells [5],suppressed
